Earlier results in patent US7371779B2, “Synergistic compositions of N-acylhomoserine lactones and 4-quinolones” (The Secretary of State for Defense Science and Technology, priority 2001, dated 2008).

System: TNFα
Conditions: Infection and Immunity vol.66 no.1, 1998; cited from earlier work

CCCCCCCCCC(=O)CC(=O)N[C@H]1CCOC1=O [Example 6]
inhibition of TNFα production by LPS-stimulated adherent murine peritoneal macrophages: inhibiting
